Source: patent US5654299A, “Aryl substituted heterocycles” (Zeneca Limited, priority 1993, dated 1997)
Several values for one entry are separate records, joined by “and”; a condition that tells them apart may be missing. Equal values may be shown once. Where a name gives a salt, the structure may show the parent alone. Read-outs that look alike come from different tables or passages of the source.

Experiments:
[1] = target: T1, guinea pig trachea (Cavia porcellus, UniProt Q64077); assay: Guinea Pig Trachea Assay (Test B), antagonism of NKA or [β-ala^8]-NKA(4-10); assay type: cell-based; settings: for Kb: guinea pig trachea, apparent dissociation constant, -log molar KB
T1 sequence (Q64077 1-402): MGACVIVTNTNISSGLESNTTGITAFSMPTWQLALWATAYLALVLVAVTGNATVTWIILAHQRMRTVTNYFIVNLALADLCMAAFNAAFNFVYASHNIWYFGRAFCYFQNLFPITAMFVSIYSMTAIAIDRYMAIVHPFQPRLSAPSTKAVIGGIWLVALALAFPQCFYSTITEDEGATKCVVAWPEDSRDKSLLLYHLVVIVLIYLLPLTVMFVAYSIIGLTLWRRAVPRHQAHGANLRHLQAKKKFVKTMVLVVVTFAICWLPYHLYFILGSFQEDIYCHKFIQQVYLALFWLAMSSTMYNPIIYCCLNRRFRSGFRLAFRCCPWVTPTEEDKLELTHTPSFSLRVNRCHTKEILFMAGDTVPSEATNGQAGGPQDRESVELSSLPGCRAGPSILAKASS

[2] = target: T2, human NK2 receptor (Homo sapiens, UniProt P21452); assay: Neurokinin A (NKA) Receptor-binding Assay (Test A), 3H-NKA binding to MEL cell membranes (MELM)
T2 sequence (P21452 1-398): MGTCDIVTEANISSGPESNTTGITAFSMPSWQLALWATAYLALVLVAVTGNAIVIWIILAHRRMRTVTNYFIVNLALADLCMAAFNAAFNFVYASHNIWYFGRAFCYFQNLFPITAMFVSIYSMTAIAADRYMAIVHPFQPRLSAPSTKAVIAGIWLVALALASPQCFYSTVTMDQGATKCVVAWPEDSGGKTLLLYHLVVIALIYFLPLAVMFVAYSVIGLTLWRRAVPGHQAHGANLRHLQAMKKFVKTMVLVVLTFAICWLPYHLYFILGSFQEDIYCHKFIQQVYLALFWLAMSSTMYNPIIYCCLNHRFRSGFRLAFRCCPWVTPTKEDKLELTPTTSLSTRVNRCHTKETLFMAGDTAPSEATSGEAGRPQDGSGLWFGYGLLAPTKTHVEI

[3] = system: NKA receptor from rat duodenum membranes; settings: Edmonds-Alt (1993), cited from earlier work; for Ki: rat duodenum membranes, read-out: inhibition constant (Ki), [125I]-NKA binding
[4] = system: NK2 receptor; assay: Guinea Pig Labored Abdominal Breathing (Dyspnea) Assay (Test C), [β-ala^8]-NKA(4-10) aerosol; assay type: in vivo; settings: 5 μmol/kg p.o., 120 min prior
Protocol: Guinea Pig Labored Abdominal Breathing (Dyspnea) Assay (Test C)
Using the clear plastic chamber described previously by Snyder et al. to secure guinea pigs for a head-only aerosol exposure to bronchoconstrictor agonists, agonist is administered by aerosol to six conscious guinea pigs simultaneously during each maneuver. The tachykinin NK2-selective agonist, [β-ala^8 ]-NKA(4-10), 3×10^-5 M, is aerosolized from a Devilhiss Model 25 ultrasonic nebulizer into an air stream entering the chamber at a rate of 2 L/minute.
Guinea pigs (275-400 g) are fasted for approximately 16 hours prior to experimentation. Compounds to be evaluated for blockade of effects of [β-ala^8 ]-NKA(4-10) or their vehicle (10% PEG400 in saline) are administered p.o. or i.v. at various times before aerosol agonist challenge. All animals are pretreated with atropine (10 mg/kg, i.p., 45 minutes pretreatment) indomethacin (10 mg/kg, i.p., 30 minutes pretreatment), propranolol (5 mg/kg, i.p., 30 minutes pretreatment), and thiorphan (1 mg/ml aerosol for 5 minutes, 15 minutes pretreatment).
Aerosol challenge with the agonist produces an initial increase in respiratory rate followed by a decrease with early signs of minor involvement of the abdominal muscles. The respiratory rate decreases further and the breathing becomes more labored with greater involvement of the abdominal muscles as exposure continues. The distinctly recognizable end point is the point where the breathing pattern of the guinea pig is consistently slow, deep, and deliberate, showing marked involvement of the abdominal muscles. Time, in seconds, from the onset of aerosol challenge to this end point is determined for each animal by using a stopwatch. […] Antagonists result in an increase in the time to reach the end point. Animals receive the aerosol administration of agonist for a maximum time of 780 seconds.
Differences between drug treated groups and corresponding vehicle treated control groups are compared using Student's t-test for unpaired observations.

[5] = system: neurokinin receptors; settings: EPA 559538; cited from earlier work
[6] = read-out: pKB (Test B) (converted)

| Structure (SMILES) | Kb [1, 6] | Ki ([2]; read-out: Ki (Test A)) | number fully protected/total number tested (Test C) [4] | percent protection (Test C) [4] | other results |
| --- | --- | --- | --- | --- | --- |
| CN(CC(CCN1CC[C@H](c2ccccc2)[C@@H](O)C1)c1ccc(Cl)c(Cl)c1)C(=O)c1ccccc1 (relative stereo) [Example 10, N-[2-(3,4-Dichlorophenyl)-4-[(3R*,4R*)-3-hydroxy-4-phenylpiperidino]butyl-N-methylbenzamide hydrochloride] | 10 nM | 13 nM |  |  |  |
| CN(CC(CCN1CCC(c2ccccc2)CC1)c1ccc(Cl)c(Cl)c1)C(=O)c1ccccc1.Cl (centres unmarked) [Example 1, N-[2-(3,4-Dichlorophenyl)-4-(4-phenylpiperidino)butyl]-N-methylbenzamide hydrochloride] | 10 nM and 6.31 nM | 2.6 nM | 0/6 | 17% | biological activity of the benzamide in words [3]: lack of biological activity; Ki [3]: > 100 nM; NK2 antagonism in words, Test B ([1]; functional assay Test B): potent NK2 antagonist; NK2 antagonism in words, Test A ([2]; in vitro screen Test A): potent NK2 antagonist |
| COc1ccccc1C1CCN(CCC(CN(C)C(=O)c2ccccc2)c2ccc(Cl)c(Cl)c2)CC1 (centres unmarked) [Example 2, N-[2-(3,4-Dichlorophenyl)-4-[4-(2-methoxyphenyl)piperidino]butyl]-N-methylbenzamide hydrochloride] | 5.01 nM | 9 nM |  |  |  |
| Cc1nnc(C2CCN(CCC(CN(C)C(=O)c3ccccc3)c3ccc(Cl)c(Cl)c3)CC2)o1 (centres unmarked) [Example 7, N-[2-(3,4-Dichlorophenyl)-4-[4-(5-methyl-1,3,4-oxadiazol-2-yl)piperidino]butyl]-N-methylbenzamide hydrochloride] | 79.4 nM | 21.1 nM |  |  |  |
| CSc1ccccc1C1CCN(CCC(CN(C)C(=O)c2ccccc2)c2ccc(Cl)c(Cl)c2)CC1.Cl (centres unmarked) [Example 13, N-[2-(3,4-Dichlorophenyl)-4-[4-(2-methylthiophenyl)-piperidino]butyl]-N-methylbenzamide hydrochloride] | 2.51 nM | 3 nM | 3/6 | 78% |  |
| CN(CC(CCN1CCC2(CC1)OC(=O)c1ccccc12)c1ccc(Cl)c(Cl)c1)C(=O)c1ccccc1 (centres unmarked) [Example 24, N-[2-(3,4-Dichlorophenyl)-4-(3-oxospiro[isobenzofuran-1(3H),4'-piperidin]-1'-yl)butyl]-N-methylbenzamide hydrochloride] |  |  |  |  | Kb ([1]; pKB (Test B)): 6.31 nM; Ki [2]: 3.5 nM |
| CC(C)Oc1cccc(CC(=O)N(C)CC(CCN2CCC(c3ccccc3)CC2)c2ccc(Cl)c(Cl)c2)c1 (centres unmarked) [N-[2-(3,4-dichlorophenyl)-4-(4-phenylpiperidino)butyl]-N-methyl-3-isopropoxyphenylacetamide] |  |  |  |  | affinity for neurokinin receptors [5]: high affinity |
| CC(=O)NC1(c2ccccc2)CCN(CC[C@H](CN(C)C(=O)c2ccccc2)c2ccc(Cl)c(Cl)c2)CC1 [SR 48968, N-[4-(4-acetylamino-4-phenylpiperidino)-2-(3,4-dichlorophenyl)butyl]-N-methylbenzamide, reference compound] |  |  |  |  | Ki [3]: 0.5 nM |

Continued, in another order:

| Kb [1, 6] | Ki ([2]; read-out: Ki (Test A)) | Structure (SMILES) | number fully protected/total number tested (Test C) [4] | percent protection (Test C) [4] | other results |
| --- | --- | --- | --- | --- | --- |
| 3.16 nM | 2.8 nM | CN(CC(CCN1CCC(c2ccccc2O)CC1)c1ccc(Cl)c(Cl)c1)C(=O)c1ccccc1 (centres unmarked) [Example 6, N-[2-(3,4-Dichlorophenyl)-4-[4-(2-hydroxyphenyl)piperidino]butyl]-N-methylbenzamide hydrochloride] |  |  |  |
| 2.51 nM | 2 nM | CN(C[C@@H](CCN1CCC(c2cccnc2)CC1)c1ccc(Cl)c(Cl)c1)C(=O)c1ccccc1.Cl [Example 9, (S)-N-[2-(3,4-Dichlorophenyl)-4-[4-(3-pyridyl)piperidino]butyl]-N-methylbenzamide hydrochloride] | 5/6 | 90% |  |
| 0.316 nM | 0.3 nM | CN(C[C@@H](CCN1CCC(c2ccccc2[S+](C)[O-])CC1)c1ccc(Cl)c(Cl)c1)C(=O)c1ccccc1.Cl (stereo partly drawn) [Example 14, (S)-N-[2-(3,4-Dichlorophenyl)-4-[4-(2-methylsulfinylphenyl)piperidino]butyl]-N-methylbenzamide hydrochloride] | 8/8 | 100% |  |
| 2 nM | 2 nM | CSc1ccc(C2CCN(CC[C@H](CN(C)C(=O)c3ccccc3)c3ccc(Cl)c(Cl)c3)CC2)cc1.Cl [Example 15, (S)-N-[2-(3,4-Dichlorophenyl)-4-[4-(4-methylthiophenyl)piperidino]butyl]-N-methylbenzamide hydrochloride] | 6/6 | 100% |  |
| 6.31 nM | 0.6 nM | CN(C[C@@H](CCN1CCC(c2ccc([S+](C)[O-])cc2)CC1)c1ccc(Cl)c(Cl)c1)C(=O)c1ccccc1.Cl (stereo partly drawn) [Example 16, (S)-N-[2-(3,4-Dichlorophenyl)-4-[4-(4-methylsulfinylphenyl)piperidino]butyl]-N-methylbenzamide hydrochloride] | 5/6 | 88% |  |
| 12.6 nM | 2 nM | CN(C[C@@H](CCN1CCC(c2ccccn2)CC1)c1ccc(Cl)c(Cl)c1)C(=O)c1ccccc1.Cl [Example 27, (S)-N-[2-(3,4-Dichlorophenyl)-4-[4-(2-pyridyl)piperidino]butyl]-N-methylbenzamide hydrochloride] | 2/6 | 54% |  |
